The values below come from US20210122730A1, “GLUCOCORTICOID RECEPTOR MODULATORS” (ORIC Pharmaceuticals, Inc., priority 2017, published 2021).

For the experiment, the target named is T1, GR (Homo sapiens, UniProt P04150).
T1 construct: expressed in transfected cells; host or cells: CHO-K1
T1 sequence (P04150 1-777): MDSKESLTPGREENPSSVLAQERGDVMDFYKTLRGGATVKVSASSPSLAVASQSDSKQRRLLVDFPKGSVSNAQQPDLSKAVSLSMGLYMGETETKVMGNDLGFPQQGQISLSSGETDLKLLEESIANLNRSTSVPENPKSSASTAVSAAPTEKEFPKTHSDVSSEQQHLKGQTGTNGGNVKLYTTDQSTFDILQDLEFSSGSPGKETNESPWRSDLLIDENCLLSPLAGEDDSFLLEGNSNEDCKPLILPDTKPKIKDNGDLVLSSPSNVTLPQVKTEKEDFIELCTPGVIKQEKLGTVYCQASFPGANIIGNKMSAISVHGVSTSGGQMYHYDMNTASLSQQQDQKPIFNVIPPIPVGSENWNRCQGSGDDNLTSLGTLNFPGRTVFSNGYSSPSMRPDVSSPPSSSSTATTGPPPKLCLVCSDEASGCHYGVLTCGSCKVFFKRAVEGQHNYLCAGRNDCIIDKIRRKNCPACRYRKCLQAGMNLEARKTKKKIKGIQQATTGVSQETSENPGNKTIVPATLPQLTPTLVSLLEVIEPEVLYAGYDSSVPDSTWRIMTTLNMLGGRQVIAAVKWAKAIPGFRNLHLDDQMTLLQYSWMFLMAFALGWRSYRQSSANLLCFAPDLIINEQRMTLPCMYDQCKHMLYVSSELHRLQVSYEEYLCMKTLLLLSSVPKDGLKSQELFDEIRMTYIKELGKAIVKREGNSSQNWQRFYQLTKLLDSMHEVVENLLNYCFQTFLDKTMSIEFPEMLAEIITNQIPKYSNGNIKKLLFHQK
As to the kind of experiment: In Vitro GR Luciferase Reporter Assay (antagonist mode, CHO-K1-GR-MMTV-Luc reporter cells). The settings on record: antagonist mode, 10 nM Dexamethasone. It is filed as cell-based. The method in brief:
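CHO-K1-GR-MMTV-Luc cells in phenol red-free DMEM with 10% CSS, stimulated with 10 nM dexamethasone (final) and treated with 8-point 1:5 compound dilutions for about 18-24 h at 37° C. Luciferase measured by OneGlo luminescence; IC50 derived for inhibition of GR activity.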
(In general: In a reporter assay the amount or activity of a reporter protein is the signal.)
Usually IC50 stands for the concentration that gives 50% inhibition. A higher IC50 goes with lower potency. Take `Cn1ncc(S(=O)(=O)N(C2CCC2)[C@H]2CCC3=Cc4c(cnn4-c4ccc(F)cc4)C[C@]3(C(=O)c3cc(C(F)(F)F)ccn3)C2)n1` [Example 256, N-cyclobutyl-N-((4aS,6S)-1-(4-fluorophenyl)-4a-(4-(trifluoromethyl)picolinoyl)-4,4a,5,6,7,8-hexahydro-1H-benzo[f]indazol-6-yl)-2-methyl-2H-1,2,3-triazole-4-sulfonamide]: the half-maximal inhibitory concentration (IC50) is no more than 100 nM.

The molecule `Cn1ccc(S(=O)(=O)[C@H]2CCC3=Cc4c(cnn4-c4ccc(F)cc4)C[C@]3(C(=O)c3ncc(C(F)(F)F)s3)C2)n1` [Example 264, ((4aS,6S)-1-(4-fluorophenyl)-6-((1-methyl-1H-pyrazol-3-yl)sulfonyl)-1,4,5,6,7,8-hexahydro-4aH-benzo[f]indazol-4a-yl)(5-(trifluoromethyl)thiazol-2-yl)methanone] yielded a half-inhibitory concentration (IC50) of no more than 100 nM.

With `O=C(c1ncc(C(F)(F)F)s1)[C@]12Cc3cnn(-c4ccc(F)cc4)c3C=C1CC[C@H](N(C1CC1)S(=O)(=O)c1ccc(Cl)nc1)C2` [Example 271, 6-chloro-N-cyclopropyl-N-((4aS,6S)-1-(4-fluorophenyl)-4a-(5-(trifluoromethyl)thiazole-2-carbonyl)-4,4a,5,6,7,8-hexahydro-1H-benzo[f]indazol-6-yl)pyridine-3-sulfonamide], the IC50 was no more than 100 nM.

For the molecule `O=C(c1cc(F)ccn1)[C@]12Cc3cnn(-c4ccc(F)cc4)c3C=C1CC[C@H](N(CC1CC1)S(=O)(=O)c1ccc(F)cc1)C2` [Example 274, N-(cyclopropylmethyl)-4-fluoro-N-((4aS,6S)-1-(4-fluorophenyl)-4a-(4-fluoropicolinoyl)-4,4a,5,6,7,8-hexahydro-1H-benzo[f]indazol-6-yl)benzenesulfonamide], the IC50 is no more than 100 nM.

`O=C(c1cc(Cl)ccn1)[C@]12Cc3cnn(-c4ccc(F)cc4)c3C=C1CC[C@H](N(CC1CC1)S(=O)(=O)c1ccc(F)cc1)C2` [Example 275, N-((4aS,6S)-4a-(4-chloropicolinoyl)-1-(4-fluorophenyl)-4,4a,5,6,7,8-hexahydro-1H-benzo[f]indazol-6-yl)-N-(cyclopropylmethyl)-4-fluorobenzenesulfonamide]: the 50% inhibitory concentration (IC50) is no more than 100 nM.

`O=C(c1cc(Cl)ccn1)[C@]12Cc3cnn(-c4ccc(F)cc4)c3C=C1CC[C@H](N(CC1(O)CC1)S(=O)(=O)c1ccc(F)cc1)C2` [Example 276, N-((4aS,6S)-4a-(4-chloropicolinoyl)-1-(4-fluorophenyl)-4,4a,5,6,7,8-hexahydro-1H-benzo[f]indazol-6-yl)-4-fluoro-N-((1-hydroxycyclopropyl)methyl) benzenesulfonamide] registered a concentration for half-maximal inhibition (IC50) of no more than 100 nM.

For `CC(C)N([C@H]1CCC2=Cc3c(cnn3-c3ccc(F)cc3)C[C@]2(C(=O)c2cc(F)ccn2)C1)S(=O)(=O)c1cnn(C)n1` [Example 278, N-((4aS,6S)-1-(4-fluorophenyl)-4a-(4-fluoropicolinoyl)-4,4a,5,6,7,8-hexahydro-1H-benzo[f]indazol-6-yl)-N-isopropyl-2-methyl-2H-1,2,3-triazole-4-sulfonamide], the half-inhibitory concentration (IC50) was no more than 100 nM.

`CC(C)N(C(=O)C1CCCC1)[C@H]1CCC2=Cc3c(cnn3-c3ccc(F)cc3)C[C@]2(C(=O)c2ncc(C(F)(F)F)s2)C1` [Example 281, N-((4aS,6S)-1-(4-fluorophenyl)-4a-(5-(trifluoromethyl)thiazole-2-carbonyl)-4,4a,5,6,7,8-hexahydro-1H-benzo[f]indazol-6-yl)-N-isopropylcyclopentanecarbox-amide] yielded an IC50 of no more than 100 nM.

Regarding `Cn1ccc(S(=O)(=O)N([C@H]2CCC3=Cc4c(cnn4-c4ccc(F)cc4)C[C@]3(C(=O)c3cc(F)ccn3)C2)[C@H]2C[C@@](C)(O)C2)n1` [Example 284, N-((4aS,6S)-1-(4-fluorophenyl)-4a-(4-fluoropicolinoyl)-4,4a,5,6,7,8-hexahydro-1H-benzo[f]indazol-6-yl)-N-((1s,3R)-3-hydroxy-3-methylcyclobutyl)-1-methyl-1H-pyrazole-3-sulfonamide], the IC50 was no more than 100 nM.

In the case of `O=C(c1cc(C(F)(F)F)ccn1)[C@]12Cc3cnn(-c4ccc(F)cc4)c3C=C1CC[C@H](N(C1CC1)S(=O)(=O)c1ccc(C(F)(F)F)nc1)C2` [Example 285, N-cyclopropyl-N-((4aS,6S)-1-(4-fluorophenyl)-4a-(4-(trifluoromethyl)picolinoyl)-4,4a,5,6,7,8-hexahydro-1H-benzo[f]indazol-6-yl)-6-(trifluoromethyl)pyridine-3-sulfonamide], the IC50 was no more than 100 nM.

`O=C(c1ccc(F)cc1)N(C1CC1)[C@H]1CCC2=Cc3c(cnn3-c3ccc(F)cc3)C[C@]2(C(=O)c2ncc(C(F)(F)F)s2)C1` [Example 291, N-cyclopropyl-4-fluoro-N-((4aS,6S)-1-(4-fluorophenyl)-4a-(5-(trifluoromethyl)thiazole-2-carbonyl)-4,4a,5,6,7,8-hexahydro-1H-benzo[f]indazol-6-yl)benzamide] came in with a half-maximal inhibitory concentration (IC50) of 100 to 1000 nM.

Molecule `Cn1ncc(S(=O)(=O)N(CC2(O)CC2)[C@H]2CCC3=Cc4c(cnn4-c4ccc(F)cc4)C[C@]3(C(=O)c3ncc(C(F)(F)F)s3)C2)n1` [Example 292, N-((4aS,6S)-1-(4-fluorophenyl)-4a-(5-(trifluoromethyl)thiazole-2-carbonyl)-4,4a,5,6,7,8-hexahydro-1H-benzo[f]indazol-6-yl)-N-((1-hydroxycyclopropyl)methyl)-2-methyl-2H-1,2,3-triazole-4-sulfonamide] registered an IC50 of no more than 100 nM.

For `Cn1cc(S(=O)(=O)N(CC2CC2)[C@H]2CCC3=Cc4c(cnn4-c4ccc(F)cc4)C[C@]3(C(=O)c3cc(F)ccn3)C2)nn1` [Example 297, N-(cyclopropylmethyl)-N-((4aS,6S)-1-(4-fluorophenyl)-4a-(4-fluoropicolinoyl)-4,4a,5,6,7,8-hexahydro-1H-benzo[f]indazol-6-yl)-1-methyl-1H-1,2,3-triazole-4-sulfonamide], the IC50 is no more than 100 nM.

`Cn1cc(S(=O)(=O)N(CC(C)(C)O)[C@H]2CCC3=Cc4c(cnn4-c4ccc(F)cc4)C[C@]3(C(=O)c3ncc(C(F)(F)F)s3)C2)nn1` [Example 301, N-((4aS,6S)-1-(4-fluorophenyl)-4a-(5-(trifluoromethyl)thiazole-2-carbonyl)-4,4a,5,6,7,8-hexahydro-1H-benzo[f]indazol-6-yl)-N-(2-hydroxy-2-methylpropyl)-1-methyl-1H-1,2,3-triazole-4-sulfonamide] registered an IC50 of no more than 100 nM.

Molecule `CC(C)(O)CN([C@H]1CCC2=Cc3c(cnn3-c3ccc(F)cc3)C[C@]2(C(=O)c2cc(C(F)(F)F)ccn2)C1)S(=O)(=O)c1ccc(Cl)nc1` [Example 302, 6-chloro-N-((4aS,6S)-1-(4-fluorophenyl)-4a-(4-(trifluoromethyl)picolinoyl)-4,4a,5,6,7,8-hexahydro-1H-benzo[f]indazol-6-yl)-N-(2-hydroxy-2-methylpropyl)pyridine-3-sulfonamide] had a half-maximal inhibitory concentration (IC50) of no more than 100 nM.

With `CC(C)(O)CN([C@H]1CCC2=Cc3c(cnn3-c3ccc(F)cc3)C[C@]2(C(=O)c2ncc(C(F)(F)F)s2)C1)S(=O)(=O)c1ccc(Cl)nc1` [Example 303, 6-chloro-N-((4aS,6S)-1-(4-fluorophenyl)-4a-(5-(trifluoromethyl)thiazole-2-carbonyl)-4,4a,5,6,7,8-hexahydro-1H-benzo[f]indazol-6-yl)-N-(2-hydroxy-2-methylpropyl)pyridine-3-sulfonamide], the half-maximal inhibitory concentration (IC50) was no more than 100 nM.
